Read-outs that look alike come from different tables or passages of the source.
What was measured:
[1] = target: GDP-bound KRAS wild-type protein (Homo sapiens, UniProt P01116); assay: Binding to KRAS by surface plasmon resonance (SPR), dissociation constant KD
How it was run: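 Biotinylated GDP-bound RAS was captured at about 100–300 RU. Running buffer: HBS pH 7.4, 10 mM MgCl2, 10 µM GDP, 1 mM DTT, 0.01% Tween 20, 4% DMSO.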

[2] = target: GDP-bound NRAS wild-type protein (Homo sapiens, UniProt P01111); assay: Binding to NRAS by surface plasmon resonance (SPR), KD and KD ratio to KRAS
GDP-bound NRAS wild-type protein, sequence (P01111 whole entry): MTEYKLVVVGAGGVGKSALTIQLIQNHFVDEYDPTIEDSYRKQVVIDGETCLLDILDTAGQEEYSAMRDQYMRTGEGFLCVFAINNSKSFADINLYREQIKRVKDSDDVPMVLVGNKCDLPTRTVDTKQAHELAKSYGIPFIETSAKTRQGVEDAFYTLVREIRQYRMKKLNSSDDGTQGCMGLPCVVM
How it was run: (§1)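 Measured at 30°C: SPR with GDP-loaded, E. coli-expressed biotin-Avi RAS captured (~100–300 RU), ascending 75 s compound injections, HBS pH 7.4 with GDP, MgCl2, 4% DMSO. KD from 1:1 fit.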

HRAS wild-type protein = HRAS wild-type protein (Homo sapiens, UniProt P01112); assay: Binding to HRAS by surface plasmon resonance (SPR), KD and KD ratio to KRAS
HRAS wild-type protein, sequence (P01112 whole entry): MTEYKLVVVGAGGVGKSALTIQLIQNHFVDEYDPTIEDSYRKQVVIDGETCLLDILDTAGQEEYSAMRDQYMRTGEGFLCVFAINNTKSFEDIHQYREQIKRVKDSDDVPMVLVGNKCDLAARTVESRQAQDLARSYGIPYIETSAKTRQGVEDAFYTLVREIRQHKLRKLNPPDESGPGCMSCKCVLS
How it was run: as §1

[3] = test system: human lung cancer strain NCI-H441; assay: NCI-H441 cell proliferation inhibitory activity (CellTiter-Glo, 4 days); assay type: cell-based; conditions: read-out: NCl-H441 IC50
How it was run: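 Signal came from […] measured per well once the reagent was added. Beforehand, cells were cultured at 37°C and 5% carbon dioxide on a compound series serially diluted in dimethyl sulfoxide.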

[4] = ratio of KD for GDP-bound NRAS wild-type protein to KD for KRAS
[5] = ratio of KD for HRAS wild-type protein to KD for KRAS
[6] = Single Cycle Kinetics, 1:1 binding model
[7] = ratio of KD with respect to GDP-bound NRAS wild-type protein to KD with respect to KRAS
[8] = ratio of KD with respect to HRAS wild-type protein to KD with respect to KRAS
[9] = 50% proliferation inhibitory concentration, four days

GDP-bound KRAS wild-type protein, sequence (P01116 1-188 isoform P01116-2): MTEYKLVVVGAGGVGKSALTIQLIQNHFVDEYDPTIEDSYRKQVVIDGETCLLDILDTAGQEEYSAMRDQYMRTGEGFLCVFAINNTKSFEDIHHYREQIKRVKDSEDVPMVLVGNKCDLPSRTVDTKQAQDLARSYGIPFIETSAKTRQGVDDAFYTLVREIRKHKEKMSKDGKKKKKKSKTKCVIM

Structure (SMILES) | Kd ([1]; 1:1 binding model) | NRAS /KRAS [2, 4] | HRAS /KRAS (HRAS wild-type protein; [5]) | IC50 ([3]; NCI-H441 cells, 4 days) | Kd [1, 6] | NRAS /KRAS [2, 7] | HRAS /KRAS (HRAS wild-type protein; [8]) | IC50 [3, 9] | Kd ([1]; Single Cycle Kinetics)
CCC[C@H]1C(=O)N[C@@H]([C@@H](C)CC)C(=O)N(C2CC2)CC(=O)N(C)[C@H]2C/C=C\CCN(C2=O)[C@@H](Cc2ccc(C)cc2)C(=O)N(C)CC(=O)N[C@@H](CCc2cc(F)c(C(F)(F)F)c(F)c2)C(=O)N2C[C@H](OCC)C[C@H]2C(=O)NC2(CC(C)(C)C2)C(=O)N(C)[C@@H](C(CC)CC)C(=O)N(C)[C@H](C(=O)N(C)C)CC(=O)N1C [PP2560] | 1 nM | AA (a compound having 20 or more is denoted as AA) | A (a compound having 10 or more and less than 20 is denoted as A) | 46.3 nM |  |  |  |  | 
CC[C@H](C)[C@@H]1NC(=O)[C@H](CC(C)C)N(C)C(=O)C[C@@H](C(=O)N2CCOCC2)N(C)C(=O)[C@H](C2CCCC2)N(C)C(=O)C2(CCC2)NC(=O)[C@@H]2C[C@@H](OCC(C)C)CN2C(=O)[C@H](CCc2cc(F)c(C(F)(F)F)c(F)c2)NC(=O)CN(C)C(=O)[C@H](Cc2ccc(C(F)(F)F)cc2)N2CCCC[C@@H](C2=O)N(C)C(=O)CN(C)C1=O [PP1160] |  |  |  |  | 0.032 nM | B (a compound having 3 or more and less than 10 is denoted as B) | B (a compound having 3 or more and less than 10 is denoted as B) | 18.4 nM | 
CCO[C@@H]1C[C@H]2C(=O)NC3(CCCC3)C(=O)N(C)[C@@H](C3CCCC3)C(=O)N(C)[C@H](C(=O)N(C)C)CC(=O)N(C)[C@@H](CC(C)C)C(=O)N[C@@H]([C@@H](C)CC)C(=O)N(C)CC(=O)N(C)[C@H]3C/C(F)=C\CCN(C3=O)[C@@H](Cc3ccc(C)cc3)C(=O)N(C)CC(=O)N[C@@H](CCc3ccc(C(F)(F)F)c(OC)c3)C(=O)N2C1 [PP3512] |  | B (a compound having 3 or more and less than 10 is denoted as B) | B (a compound having 3 or more and less than 10 is denoted as B) | 8.8 nM |  |  |  |  | 0.25 nM
CC[C@H](C)[C@@H]1NC(=O)[C@H](COC)N(C)C(=O)C[C@@H](C(=O)N(C)C)N(C)C(=O)[C@H](C2CCCCC2)N(C)C(=O)C2(CC(C)(C)C2)NC(=O)[C@@H]2C[C@@H](OC(C)C)CN2C(=O)[C@H](CCc2cc(F)c(C(F)(F)F)c(F)c2)NC(=O)CN(C)C(=O)[C@H](Cc2ccc(C)cc2)N2CC/C=C\C[C@@H](C2=O)N(C)C(=O)CN(C)C1=O [PP2660] | 0.18 nM | A (a compound having 10 or more and less than 20 is denoted as A) | A (a compound having 10 or more and less than 20 is denoted as A) | 14.3 nM |  |  |  |  | 
C#CC[C@H]1C(=O)N[C@@H]([C@@H](C)CC)C(=O)N2CCCC[C@H]2C(=O)N(C)[C@H]2C/C=C\CCN(C2=O)[C@@H](Cc2ccc(C(F)(F)F)cc2)C(=O)N(C)CC(=O)N[C@@H](CCc2cc(F)c(C(F)(F)F)c(F)c2)C(=O)N2C[C@H](OCC)C[C@H]2C(=O)N(C)C2(CCC2)C(=O)N(C)[C@@H](C2CCCC2)C(=O)N(C)[C@H](C(=O)N(C)C)CC(=O)N1C [PP3259] |  | A (a compound having 10 or more and less than 20 is denoted as A) | B (a compound having 3 or more and less than 10 is denoted as B) | 49.8 nM |  |  |  |  | 1.2 nM
CCO[C@@H]1C[C@H]2C(=O)NC3(CCC3)C(=O)N(C)[C@@H](C3CCCC3)C(=O)N(C)[C@H](C(=O)N(C)C)CC(=O)N(C)[C@@H](CC(C)C)C(=O)N[C@@H]([C@@H](C)CC)C(=O)N(C)CC(=O)N(C)[C@H]3C/C=C\CCN(C3=O)[C@@H](Cc3ccc(C)cc3)C(=O)N(C)CC(=O)N[C@@H](CCc3cc(F)c(C(F)(F)F)c(F)c3)C(=O)N2C1 [PP1414] |  |  |  |  | 0.074 nM | A (a compound having 10 or more and less than 20 is denoted as A) | B (a compound having 3 or more and less than 10 is denoted as B) | 4.4 nM | 
